Experimental data published in patent US4769483A, “Cycloalkyl-substituted 4-aminophenyl derivatives and process for their preparation” (Farmitalia Carlo Erba, S.p.A., priority 1985, dated 1988).

Columns and labels:
[1] = target: T1, human placental aromatase (Homo sapiens, UniProt P11511); assay: Inhibition of human placental aromatase in vitro (3H2O release from 4-[1β,2β-3H]androstene-3,17-dione); type: biochemical; conditions: for IC50: microsomal fraction of human placental tissue, 50 nM 4-[3H]androstenedione, 100 μM NADPH, 0.05 mg microsomal proteins, 37° C., pH 7.5, 15 minutes; for Relative potency: versus aminoglutethimide (= 1 by definition)
T1 construct: the enzyme system was isolated from the microsomal fraction of human placental tissue; from tissue; host or cells: human placenta, microsomal fraction
T1 sequence (P11511 1-503): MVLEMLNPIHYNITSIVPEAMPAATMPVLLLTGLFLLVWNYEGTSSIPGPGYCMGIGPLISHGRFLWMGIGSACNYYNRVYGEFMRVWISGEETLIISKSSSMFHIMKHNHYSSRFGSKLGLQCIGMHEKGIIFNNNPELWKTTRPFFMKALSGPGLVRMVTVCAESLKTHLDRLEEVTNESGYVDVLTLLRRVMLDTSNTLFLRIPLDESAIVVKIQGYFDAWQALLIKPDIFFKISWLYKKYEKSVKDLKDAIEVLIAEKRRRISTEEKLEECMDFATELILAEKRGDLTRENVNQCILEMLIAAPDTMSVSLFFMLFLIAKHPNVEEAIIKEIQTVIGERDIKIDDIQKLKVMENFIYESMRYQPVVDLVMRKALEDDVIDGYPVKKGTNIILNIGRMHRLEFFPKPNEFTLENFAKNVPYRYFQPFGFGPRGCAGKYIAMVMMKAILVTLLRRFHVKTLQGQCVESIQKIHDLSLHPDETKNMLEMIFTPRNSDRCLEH
Method: The assay of the aromatase inhibition in vitro was carried out as follows: the enzyme system was isolated from the microsomal fraction of human placental tissue according to standard procedure. […] All incubations were carried out in a shaking water bath at 37° C. in air in 10 mM potassium phosphate buffer, pH 7.5, which contained 100 mM KCl, 1 mM EDTA and 1 mM dithiothreitol.
The experiments were carried out in 1 ml incubation volume containing 50 nM 4-[^3 H]androstenedione, various concentrations of the inhibitors, 100 μM NADPH and 0.05 mg of microsomal proteins. After 15 minutes of incubation the reaction was stopped by the addition of choroform (5 ml).
After centrifugation at 1500 ×g for 5 minutes aliquots (0.5 ml) were removed from the water phase for determination of ^3 H2 O formed.

aromatase = conditions: literature reports; cited from earlier work

SMILES | IC50 [1] [nM] | Relative potency [1] | aromatase-inhibiting action (in words) (aromatase)
Nc1ccc(C2CCCCC2)cc1 [4-cyclohexylaniline] | 1220 | 1.7 | more or less selective aromatase-inhibiting action
CCC1(c2ccncc2)CCC(=O)NC1=O (centres unmarked) [4-pyridyl-3-ethyl-2,6-piperidinedione] | – | – | more or less selective aromatase-inhibiting action
C[C@@H](C(=O)NC1CCCCC1)c1ccc(N)cc1 [FCE 24786, N-cyclohexyl-2-(R)-2-(4'-aminophenyl)propanamide] | 130 | 16.3 | –
C[C@@H](C(=O)OC1CCCCC1)c1ccc(N)cc1 [FCE 24328, cyclohexyl 2-(R)-2-(4'-aminophenyl)propionate] | 100 | 21.2 | –
